From PubChem BioAssay (NCI)
Several values for one entry are separate records, joined by “and”; a condition that tells them apart may be missing. Equal values may be shown once.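 A five-concentration, 48-hour dose response in 96-well plates underlies each endpoint, interpolated linearly between surrounding concentrations. The concentration for 50% growth inhibition is given as GI50. TGI marks complete inhibition of growth.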

Assays:
Assay in all cases: NCI-60 cell line screen, 48 h
[1] = system: KM20L2 colon
[2] = system: DMS 273 small cell lung
[3] = system: DLD-1 colon
[4] = system: XF 498 CNS
[5] = system: HOP-18 NSCLC
[6] = system: RXF-631 renal
[7] = system: LXFL 529 NSCLC
[8] = system: DU-145 prostate
[9] = system: MDA-N

| Structure (SMILES) | TGI [1] | TGI [2] | TGI [3] | TGI [4] | TGI [5] | TGI [6] | TGI [7] | GI50 [8] | GI50 [1] | GI50 [2] | GI50 [3] | GI50 [4] | GI50 [9] | TGI [9] | GI50 [7] |
| --- | --- | --- | --- | --- | --- | --- | --- | --- | --- | --- | --- | --- | --- | --- | --- |
| CCN(CC)c1ccc2c(c1)Nc1cc(=C(C#N)C#N)c3ccccc3c1=N2 | > 100 µM | > 100 µM | > 100 µM | > 100 µM | > 100 µM | > 100 µM | > 100 µM |  |  |  |  |  |  |  |  |
| CCOC(=O)CC1NC(=O)CS1 (configuration not stated) | > 100 µM | > 100 µM | > 100 µM |  | > 100 µM | > 100 µM | > 100 µM |  |  |  |  |  |  |  |  |
| O=C(OC[C@H]1O[C@@H](OC(=O)c2cc(O)c(O)c(O)c2)[C@H](OC(=O)c2cc(O)c(O)c(O)c2)[C@@H](OC(=O)c2cc(O)c(O)c(O)c2)[C@@H]1OC(=O)c1cc(O)c(O)c(O)c1)c1cc(O)c(O)c(O)c1 | > 100 µM | 7.07 µM | 22.5 µM | 22.5 µM | > 100 µM |  | > 100 µM |  |  |  |  |  |  |  |  |
| O=C1C2Cc3ccccc3CN2C(=O)N1CCN1CCCC1 (configuration not stated) | > 100 µM | > 100 µM | > 100 µM | > 100 µM |  | > 100 µM | > 100 µM |  |  |  |  |  |  |  |  |
| COC(=O)C1=C(CS(=O)c2ccccc2[N+](=O)[O-])ON(C)C1c1ccccc1 (configuration not stated) | 85.1 µM | > 100 µM | > 100 µM | 86.2 µM | > 100 µM |  | > 100 µM |  |  |  |  |  |  |  |  |
| O=c1[nH]c(=O)n(C2OC3COC2C3O)cc1F (configuration not stated) | > 100 µM | > 100 µM | > 100 µM | > 100 µM | > 100 µM | > 100 µM | > 100 µM |  |  |  |  |  |  |  |  |
| Cc1ccc2c(c1)C(c1cccc3ccccc13)OC2=O (configuration not stated) | > 100 µM | > 100 µM | > 100 µM |  | > 100 µM | > 100 µM | > 100 µM |  |  |  |  |  |  |  |  |
| C=C1C(=O)OC2/C=C(\C=O)CC/C=C(\C)C(O)C[C@@H]12 (some centres not stated) | 22.4 µM | 15.7 µM | 8.93 µM | 16.1 µM | 31.2 µM |  | 13.6 µM |  |  |  |  |  |  |  |  |
| C1=CC=C2NCCOCCNC3=CC=CC=CC3=NCCOCCN=C2C=C1 | 79.3 µM | > 100 µM | > 100 µM |  | > 100 µM | > 100 µM | > 100 µM |  |  |  |  |  |  |  |  |
| CCOc1ccccc1NC(=O)CCc1nc(=S)[nH][nH]1 |  |  | > 100 µM |  | > 100 µM | > 100 µM | > 100 µM |  |  |  |  |  |  |  |  |
| Cc1c2cc[n+](C)cc2c(C)c2c1[nH]c1ccc(O)c(OCC(F)(F)F)c12 | > 55 µM | 8.79 µM | 44.4 µM | 10.6 µM |  | 15.4 µM | 8.16 µM |  |  |  |  |  |  |  |  |
| COC(=O)c1nc(N)[nH]c(=O)c1CCCCCc1c(C(=O)OC)nc(N)[nH]c1=O | > 50 µM | > 50 µM | > 50 µM | > 50 µM | > 50 µM | > 50 µM | > 50 µM |  |  |  |  |  |  |  |  |
| O=C1CCC(O)=C1O | > 100 µM | > 100 µM | > 100 µM | > 100 µM | > 100 µM | > 100 µM | > 100 µM |  |  |  |  |  |  |  |  |
| S=c1nc(-c2cccnc2)[nH][nH]1 | > 100 µM | > 100 µM | > 100 µM | > 100 µM | > 100 µM |  | > 100 µM |  |  |  |  |  |  |  |  |
| CCOC(=O)c1cc(/C=C/C(C)=C/C(=O)OC)n(C)c1C | > 100 µM | > 100 µM | > 100 µM | > 100 µM |  | > 100 µM | > 100 µM |  |  |  |  |  |  |  |  |
| CCOC(=O)[C@H]1Nc2ccc(OC)cc2C2c3ccccc3CC21 (some centres not stated) | > 100 µM | > 100 µM | > 100 µM | > 100 µM |  | > 100 µM | > 100 µM |  |  |  |  |  |  |  |  |
| CC[C@@]1(O)C(=O)OCc2c1cc1n(c2=O)Cc2cc3cc(N)ccc3nc2-1 | 0.854 µM and 0.547 µM | 0.129 µM and 0.179 µM | > 100 µM | 1.39 µM and 0.864 µM | > 100 µM |  | 3.15 µM | 14.4 nM | 31.4 nM and 37.3 nM | 2.63 nM | 88.5 nM and 346 nM | 149 nM and 138 nM | 227 nM | 1400 nM and 270 nM | 204 nM |
| Nc1nc(CCC(=O)Nc2cccc(C(F)(F)F)c2)cc(-c2ccc3ccccc3c2)n1 | > 100 µM | > 100 µM | > 100 µM | > 100 µM | > 100 µM |  | > 100 µM |  |  |  |  |  |  |  |  |
| CCOC(=O)C(=O)Nc1c(C(C)C)cccc1C(C)C | > 100 µM | > 100 µM | > 100 µM | > 100 µM | > 100 µM | > 100 µM | > 100 µM |  |  |  |  |  |  |  |  |
| C=C=C(C(=O)OC)S(=O)c1ccc([N+](=O)[O-])cc1[N+](=O)[O-] (configuration not stated) | 63.8 µM | 64.1 µM | 29.7 µM | > 71.2 µM | 98.7 µM | > 69.7 µM | 38 µM |  |  |  |  |  |  |  |  |
